Where two headings read alike, the source gives them in different places.
Columns and labels:
[1] = target: JAK3 (Homo sapiens, UniProt P52333); experiment: Kinase inhibition profile; format: biochemical; settings: 200 nM; read-out: inhibitory activity
Description: (§1) The preparation of CT327 and the reference compounds was conducted following a similar procedure. CT327 also was tested at a concentration of 200 nM.
(§2) The inhibitory activity of CT327 against the tested tyrosine kinase and serine/threonine kinases is shown in the Table a and b, respectively, reported in FIG. 9b.

[2] = target: JNK2 (Homo sapiens, UniProt P45984); experiment: Kinase inhibition profile; format: biochemical; settings: 200 nM; read-out: inhibitory activity
Chain of JNK2 (P45984 whole entry, species assumed): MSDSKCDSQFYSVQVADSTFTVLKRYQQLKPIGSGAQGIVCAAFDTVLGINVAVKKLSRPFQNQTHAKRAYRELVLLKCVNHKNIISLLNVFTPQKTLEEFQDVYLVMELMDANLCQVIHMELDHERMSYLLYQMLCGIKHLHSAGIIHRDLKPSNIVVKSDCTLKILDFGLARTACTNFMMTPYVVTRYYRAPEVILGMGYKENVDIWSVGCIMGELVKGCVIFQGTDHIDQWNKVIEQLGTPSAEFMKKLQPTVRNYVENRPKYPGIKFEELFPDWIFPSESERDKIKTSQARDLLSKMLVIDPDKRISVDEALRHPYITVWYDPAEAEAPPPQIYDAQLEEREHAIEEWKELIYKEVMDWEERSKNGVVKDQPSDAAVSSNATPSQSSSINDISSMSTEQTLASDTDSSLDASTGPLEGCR
Description: as §1, §2

[3] = target: JNK1 (Homo sapiens, UniProt P45983); experiment: Kinase inhibition profile; format: biochemical; settings: 200 nM; read-out: inhibitory activity
Chain of JNK1 (P45983 whole entry, species assumed): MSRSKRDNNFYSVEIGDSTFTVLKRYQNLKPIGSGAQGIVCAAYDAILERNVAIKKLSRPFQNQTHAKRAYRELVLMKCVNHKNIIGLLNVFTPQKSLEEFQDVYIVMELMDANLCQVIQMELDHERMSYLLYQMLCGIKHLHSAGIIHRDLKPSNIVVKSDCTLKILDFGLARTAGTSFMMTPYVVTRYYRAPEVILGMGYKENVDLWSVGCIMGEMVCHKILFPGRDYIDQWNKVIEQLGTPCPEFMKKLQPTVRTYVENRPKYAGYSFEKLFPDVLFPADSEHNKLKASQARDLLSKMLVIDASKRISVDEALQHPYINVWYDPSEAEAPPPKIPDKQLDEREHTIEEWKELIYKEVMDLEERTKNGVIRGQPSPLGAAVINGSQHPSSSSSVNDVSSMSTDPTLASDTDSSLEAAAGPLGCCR
Description: as §1, §2

[4] = target: MET (Homo sapiens, UniProt P08581); experiment: Kinase inhibition profile; format: biochemical; settings: 200 nM; read-out: inhibitory activity
Description: as §1, §2

[5] = target: AurA (Homo sapiens, UniProt O14965); experiment: Kinase inhibition profile; format: biochemical; settings: 200 nM; read-out: inhibitory activity
Chain of AurA (O14965 whole entry, species assumed): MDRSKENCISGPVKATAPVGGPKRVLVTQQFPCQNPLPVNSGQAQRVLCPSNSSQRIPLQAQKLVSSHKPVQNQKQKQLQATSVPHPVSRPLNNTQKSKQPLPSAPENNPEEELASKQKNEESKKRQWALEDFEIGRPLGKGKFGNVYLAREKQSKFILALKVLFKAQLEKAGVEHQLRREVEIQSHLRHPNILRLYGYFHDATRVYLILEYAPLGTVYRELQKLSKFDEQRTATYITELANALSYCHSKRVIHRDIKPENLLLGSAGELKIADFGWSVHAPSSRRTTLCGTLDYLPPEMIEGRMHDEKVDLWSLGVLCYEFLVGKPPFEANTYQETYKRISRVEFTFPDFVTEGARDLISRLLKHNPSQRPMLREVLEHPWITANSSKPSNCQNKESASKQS
Description: as §1, §2

[6] = target: MER (Homo sapiens, UniProt Q12866); experiment: Kinase inhibition profile; format: biochemical; settings: 200 nM; read-out: inhibitory activity
Description: as §1, §2

[7] = target: RET (Homo sapiens, UniProt P07949); experiment: Kinase inhibition profile; format: biochemical; settings: 200 nM; read-out: inhibitory activity
Description: as §1, §2

[8] = target: CHK1 (Homo sapiens, UniProt O14757); experiment: Kinase inhibition profile; format: biochemical; settings: 200 nM; read-out: inhibitory activity
Description: as §1, §2

[9] = target: TrkC (Homo sapiens, UniProt Q16288); experiment: Kinase inhibition profile; format: biochemical; settings: 200 nM; read-out: inhibitory activity
Description: as §1, §2

[10] = target: TrkB (Homo sapiens, UniProt Q16620); experiment: Kinase inhibition profile; format: biochemical; settings: 200 nM; read-out: inhibitory activity
Description: as §1, §2

[11] = target: JAK1 (Homo sapiens, UniProt P23458); experiment: Kinase inhibition profile; format: biochemical; settings: 200 nM; read-out: inhibitory activity
Chain of JAK1 (P23458 whole entry, species assumed): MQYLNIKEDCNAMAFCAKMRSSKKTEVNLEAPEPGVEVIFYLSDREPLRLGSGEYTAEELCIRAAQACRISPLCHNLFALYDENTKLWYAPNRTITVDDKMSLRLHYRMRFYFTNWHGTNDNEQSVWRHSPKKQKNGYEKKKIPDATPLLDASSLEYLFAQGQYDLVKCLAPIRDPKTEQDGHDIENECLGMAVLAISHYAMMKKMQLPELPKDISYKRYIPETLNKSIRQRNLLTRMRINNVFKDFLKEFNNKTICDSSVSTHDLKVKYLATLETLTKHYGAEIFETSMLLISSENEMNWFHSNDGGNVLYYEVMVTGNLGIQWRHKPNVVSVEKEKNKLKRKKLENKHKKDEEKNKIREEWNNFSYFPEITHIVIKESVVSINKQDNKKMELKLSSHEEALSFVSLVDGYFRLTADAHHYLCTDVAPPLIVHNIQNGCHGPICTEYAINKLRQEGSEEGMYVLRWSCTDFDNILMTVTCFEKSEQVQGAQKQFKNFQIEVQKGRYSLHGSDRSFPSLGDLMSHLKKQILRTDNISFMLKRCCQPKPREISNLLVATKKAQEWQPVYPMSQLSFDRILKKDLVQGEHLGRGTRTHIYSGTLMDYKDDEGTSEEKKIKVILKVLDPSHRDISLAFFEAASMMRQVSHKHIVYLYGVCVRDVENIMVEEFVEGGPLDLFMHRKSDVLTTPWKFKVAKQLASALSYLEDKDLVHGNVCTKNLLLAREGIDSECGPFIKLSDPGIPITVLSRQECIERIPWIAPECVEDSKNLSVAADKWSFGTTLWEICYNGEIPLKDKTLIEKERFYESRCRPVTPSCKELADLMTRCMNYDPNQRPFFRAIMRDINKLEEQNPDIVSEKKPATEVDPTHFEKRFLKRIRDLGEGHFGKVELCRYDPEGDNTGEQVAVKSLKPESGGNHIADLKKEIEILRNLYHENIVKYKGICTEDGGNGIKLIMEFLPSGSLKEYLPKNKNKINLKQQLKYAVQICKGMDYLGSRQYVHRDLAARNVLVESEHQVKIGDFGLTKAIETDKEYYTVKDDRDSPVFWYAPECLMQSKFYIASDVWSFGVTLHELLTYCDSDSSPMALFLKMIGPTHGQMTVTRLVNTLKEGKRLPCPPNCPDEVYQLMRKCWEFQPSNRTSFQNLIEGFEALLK
Description: as §1, §2

[12] = target: FLT3 (Homo sapiens, UniProt P36888); experiment: Kinase inhibition profile; format: biochemical; settings: 200 nM; read-out: inhibitory activity
Description: as §1, §2

[13] = target: TYK2 (Homo sapiens, UniProt P29597); experiment: Kinase inhibition profile; format: biochemical; settings: 200 nM; read-out: inhibitory activity
Description: as §1, §2

[14] = target: FGR (Homo sapiens, UniProt P09769); experiment: Kinase inhibition profile; format: biochemical; settings: 200 nM; read-out: inhibitory activity
Chain of FGR (P09769 whole entry, species assumed): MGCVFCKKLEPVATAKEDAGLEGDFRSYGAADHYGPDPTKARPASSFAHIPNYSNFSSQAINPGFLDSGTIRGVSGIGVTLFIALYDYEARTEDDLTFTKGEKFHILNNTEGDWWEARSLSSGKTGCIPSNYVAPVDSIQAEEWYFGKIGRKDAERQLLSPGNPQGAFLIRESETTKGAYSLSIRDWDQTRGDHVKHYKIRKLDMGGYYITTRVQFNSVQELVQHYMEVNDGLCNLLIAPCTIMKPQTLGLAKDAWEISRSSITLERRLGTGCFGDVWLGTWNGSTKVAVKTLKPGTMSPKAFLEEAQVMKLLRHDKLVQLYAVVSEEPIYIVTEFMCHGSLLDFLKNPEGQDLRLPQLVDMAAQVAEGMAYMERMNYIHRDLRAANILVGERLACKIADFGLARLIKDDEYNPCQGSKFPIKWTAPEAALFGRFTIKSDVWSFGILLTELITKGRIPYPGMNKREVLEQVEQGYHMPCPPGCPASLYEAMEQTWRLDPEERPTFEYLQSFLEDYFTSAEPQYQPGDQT
Description: as §1, §2

[15] = target: CHK2 (Homo sapiens, UniProt O96017); experiment: Kinase inhibition profile; format: biochemical; settings: 200 nM; read-out: inhibitory activity
Description: as §1, §2

[16] = target: CaMK2a (Homo sapiens, UniProt Q9UQM7); experiment: Kinase inhibition profile; format: biochemical; settings: 200 nM; read-out: inhibitory activity
Chain of CaMK2a (Q9UQM7 whole entry): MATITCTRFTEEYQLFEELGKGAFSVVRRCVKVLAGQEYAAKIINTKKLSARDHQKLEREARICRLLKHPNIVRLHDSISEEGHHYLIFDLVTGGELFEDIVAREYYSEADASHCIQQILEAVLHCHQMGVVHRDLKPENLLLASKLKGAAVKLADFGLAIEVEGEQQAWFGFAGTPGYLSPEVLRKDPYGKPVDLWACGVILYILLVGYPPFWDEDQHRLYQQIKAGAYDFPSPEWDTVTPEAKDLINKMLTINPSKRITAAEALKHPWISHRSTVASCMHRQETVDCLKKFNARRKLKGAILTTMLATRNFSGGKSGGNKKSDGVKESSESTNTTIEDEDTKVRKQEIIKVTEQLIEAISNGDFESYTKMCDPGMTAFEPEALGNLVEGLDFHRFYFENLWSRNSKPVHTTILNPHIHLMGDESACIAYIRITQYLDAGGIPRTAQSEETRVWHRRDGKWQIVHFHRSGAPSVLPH
Description: as §1, §2

[17] = target: PDGFRβ (Homo sapiens, UniProt P09619); experiment: Kinase inhibition profile; format: biochemical; settings: 200 nM; read-out: inhibitory activity
Description: as §1, §2

[18] = target: TNK1 (Homo sapiens, UniProt Q13470); experiment: Kinase inhibition profile; format: biochemical; settings: 200 nM; read-out: inhibitory activity
Description: as §1, §2

[19] = target: KIT (Homo sapiens, UniProt P10721); experiment: Kinase inhibition profile; format: biochemical; settings: 200 nM; read-out: inhibitory activity
Description: as §1, §2

[20] = target: PDGFRα (Homo sapiens, UniProt P16234); experiment: Kinase inhibition profile; format: biochemical; settings: 200 nM; read-out: inhibitory activity
Chain of PDGFRα (P16234 24-1089, species assumed): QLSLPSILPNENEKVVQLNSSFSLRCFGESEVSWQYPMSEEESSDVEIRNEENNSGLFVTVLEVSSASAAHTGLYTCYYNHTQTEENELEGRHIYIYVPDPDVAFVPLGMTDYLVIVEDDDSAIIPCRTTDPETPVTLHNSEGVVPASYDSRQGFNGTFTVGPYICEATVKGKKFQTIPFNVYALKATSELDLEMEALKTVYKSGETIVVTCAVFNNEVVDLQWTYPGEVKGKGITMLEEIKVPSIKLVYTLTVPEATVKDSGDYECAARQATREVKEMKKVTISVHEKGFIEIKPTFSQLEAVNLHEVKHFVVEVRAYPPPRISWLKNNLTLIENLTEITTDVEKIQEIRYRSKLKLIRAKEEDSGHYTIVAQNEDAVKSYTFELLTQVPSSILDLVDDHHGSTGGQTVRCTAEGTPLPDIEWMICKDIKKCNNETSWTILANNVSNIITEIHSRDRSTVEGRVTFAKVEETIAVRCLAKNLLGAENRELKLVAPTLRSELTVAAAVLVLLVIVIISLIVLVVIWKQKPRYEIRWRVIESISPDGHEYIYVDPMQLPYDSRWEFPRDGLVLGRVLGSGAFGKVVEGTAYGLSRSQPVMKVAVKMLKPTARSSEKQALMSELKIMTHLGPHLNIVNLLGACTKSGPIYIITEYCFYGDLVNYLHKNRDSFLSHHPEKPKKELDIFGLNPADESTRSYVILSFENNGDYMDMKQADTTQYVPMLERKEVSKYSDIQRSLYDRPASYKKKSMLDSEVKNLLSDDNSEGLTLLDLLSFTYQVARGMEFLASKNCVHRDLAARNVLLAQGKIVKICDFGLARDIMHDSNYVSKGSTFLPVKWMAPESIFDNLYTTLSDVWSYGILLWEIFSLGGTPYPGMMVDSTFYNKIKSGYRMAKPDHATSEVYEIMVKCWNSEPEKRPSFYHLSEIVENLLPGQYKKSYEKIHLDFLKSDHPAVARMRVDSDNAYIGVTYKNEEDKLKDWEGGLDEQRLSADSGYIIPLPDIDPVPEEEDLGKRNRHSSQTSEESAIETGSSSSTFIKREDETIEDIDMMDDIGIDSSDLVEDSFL
Description: as §1, §2

[21] = target: BLK (Homo sapiens, UniProt P51451); experiment: Kinase inhibition profile; format: biochemical; settings: 200 nM; read-out: inhibitory activity
Chain of BLK (P51451 whole entry, species assumed): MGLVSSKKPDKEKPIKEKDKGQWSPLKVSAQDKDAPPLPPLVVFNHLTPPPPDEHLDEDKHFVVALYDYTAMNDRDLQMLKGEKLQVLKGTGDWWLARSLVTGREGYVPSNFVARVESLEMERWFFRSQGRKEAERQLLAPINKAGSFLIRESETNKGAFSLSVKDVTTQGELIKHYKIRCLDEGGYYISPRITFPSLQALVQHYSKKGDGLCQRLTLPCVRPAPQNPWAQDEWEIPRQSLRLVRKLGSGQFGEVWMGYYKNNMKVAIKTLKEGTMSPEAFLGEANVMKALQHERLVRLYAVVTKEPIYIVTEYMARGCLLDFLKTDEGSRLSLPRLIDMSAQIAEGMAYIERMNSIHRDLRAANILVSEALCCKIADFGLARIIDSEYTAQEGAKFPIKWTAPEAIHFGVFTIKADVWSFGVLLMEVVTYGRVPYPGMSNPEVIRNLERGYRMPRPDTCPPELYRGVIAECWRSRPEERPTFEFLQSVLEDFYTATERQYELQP
Description: as §1, §2

[22] = target: JAK2 (Homo sapiens, UniProt O60674); experiment: Kinase inhibition profile; format: biochemical; settings: 200 nM; read-out: inhibitory activity
Description: as §1, §2

[23] = PK study in mice, single dermal administration; format: in vivo
Description: At each sampling time, approximately 0.4 mL blood samples were collected from the ventral aorta of each animal using an insulin syringe, under deep ether anesthesia, and transferred into polyethylene Eppendorf tubes containing 50 μL of 5% EDTA water solution to prevent blood clotting. Blood samples were kept in ice until centrifugation at 1400 g for 5 min. in a refrigerated centrifuge (2-4° C.). From each tube plasma samples were then recovered, put in new Eppendorf tubes and frozen at −20° C. which until the HPLC analysis.
Computer fitting of the data from each experimental group was then performed by NCOMP version 3.1 program (P. B. Laub et al., Journal of Pharmaceutical Sciences, 1996, 85(4):393-395). Values for area under the plasma concentration-time profile, T1/2, Tmax, Cmax, etc. were calculated by conventional formulas previously described (Gibaldi et al., Pharmacokinetics, 1982, Marcel Dekker, Inc., New York).

[24] = tested on: human keratinocytes; experiment: MTT-assay, antiproliferative activity on keratinocytes; format: cell-based
Description: A metabolic MTT-assay was performed as test of the cellular vitality. The MTT-assay was performed using a well known and validated protocol, whereby the results are quantified through a spectrophotometric lecture, the number of living cells being directly proportional to the quantity of the formazan product formed as reduction product of MTT ([3-(4,5-dimethylthiazol-2-yl)-2,5-diphenyltetrazoliumbromid]) (Mosmann T., Rapid colorimetric assay for cellular growth and survival: Application to proliferation and cytotoxicity assays. J. Immunol. Methods. 1983, Dec. 16, 65(1-2):55-63). In the present study, the MTT-assay was performed on subconfluent cultures of keratinocytes seeded in 96-well plates for cellular culture (8000 cells/well). After the cells have been exposed to the substance which has to be analyzed, the cells are incubated for 4 hours at 37° C. with MTT (0.05%) in serum-free keratinocyte growth medium (KGM Clonetics Corp. San Diego, Calif., USA). After solubilisation of the cells with detergents, the formation of the dyestuff formazan is detected using a spectrophotometer for multi-well plate at 540 nm. The results are given as optical density unit (OD). […]

[25] = animal model of pancreatic pain; cited from earlier work
[26] = male, Balb/c, mouse, topical or ocular, 10 umol/kg, single dermal, plasma

## COC(=O)[C@]1(O)C[C@@H]2O[C@@]1(C)n1c3ccccc3c3c4c(c5c6ccccc6n2c5c31)C(=O)NC4 [Compound K-252a, K-252a]
[1]
  inhibition at 0.2 µM: > 90%
[2]
  inhibition at 0.2 µM: > 90%
[3]
  inhibition at 0.2 µM: > 90%
[4]
  inhibition at 0.2 µM: 80 to 90%
[5]
  inhibition at 0.2 µM: > 90%
[6]
  inhibition at 0.2 µM: 80 to 90%
[7]
  inhibition at 0.2 µM: > 90%
[8]
  inhibition at 0.2 µM: > 90%
[9]
  inhibition at 0.2 µM: > 90%
[10]
  inhibition at 0.2 µM: > 90%
[11]
  inhibition at 0.2 µM: 80 to 90%
[12]
  inhibition at 0.2 µM: > 90%
[13]
  inhibition at 0.2 µM: > 90%
[14]
  inhibition at 0.2 µM: 80 to 90%
[15]
  inhibition at 0.2 µM: > 90%
[16]
  inhibition at 0.2 µM: 80 to 90%
[17]
  inhibition at 0.2 µM: > 90%
[18]
  inhibition at 0.2 µM: > 90%
[19]
  inhibition at 0.2 µM: 80 to 90%
[20]
  inhibition at 0.2 µM: > 90%
[21]
  inhibition at 0.2 µM: 80 to 90%
[22]
  inhibition at 0.2 µM: > 90%
[23]; male, Balb/c, mouse, plasma, topical or ocular, 5.075 mg/kg, single dermal administration, read-out: half-life
  half-life: 1.05 h
[23]; male, Balb/c, mouse, plasma, topical, single dermal administration at same dosage (2 μmol/kg) and time point (3 hours), value±95% CI
  concentration at 3 h: 0.0729 µM
[23]; male, Balb/c, mouse, topical or ocular, 10 umol/kg, single dermal, 10 μmol/kg, plasma, read-out: Terminal T1/2
  half-life: 1.05 h
[23]; [26]
  AUC(0-inf): 4.75 µM·h
  Cmax: 0.908 µM
  Tmax: 3 h
[23]; single dermal administration
  time detectable in plasma after administration: ≥ 9 h
[24]; any contact time (1, 2, 4 h), cell counting after 48 h
  concentration with statistically significant antiproliferative action: 200 nM
[24]; contact 1, 2, 4 h, cell counting after 96 h
  antiproliferative activity: obtained for any tested concentration and any contact time
[25]
  hypersensitivity: attenuates hypersensitivity
